Where no end group is shown, it is not given here.
Tests used:
c-Raf1 kinase = assay: Inhibition of the TNFα-dependent activation of c-Raf1 kinase (immunocomplex test with MEK and γ-32P-ATP); type: cell-based; settings: HeLa cells incubated 2 h with 2 μM polypeptide, stimulated 15 min with TNFα; FIG. 2
Source text: The detection of cell permeability mediated by CPP is shown by inhibition of the TNFα-dependent activation of c-Raf1 kinase. The activation of the c-Raf1 kinase is based on the interaction between the TNF receptor I (TNR-RI) and the adapter molecule Grb2. For this purpose, the SH3 domain of Grb2 interacts with a PLAP motive from the cytoplasmic domain of TNF-RI.
CPP is provided in the form of a fusion polypeptide. In this fusion polypeptide referred to as CPP-PLAP CPP, the amino acid sequence of FIG. 1 is present as N-terminus partner and a PLAP motive from the cytoplasmic domain of TNF-RI is present as C-terminus partner. A fusion polypeptide referred to as CPP-KLAP is also provided, which has a mutated PLAP motive.
HeLa cells are incubated for 2 h with 2 μM CPP-PLAP or CPP-KLAP (control) and stimulated for 15 min with 100 μ/ml TNFα. The activation of c-Raf1 kinase is determined by an immunocomplex test using MEK (Santa Cruz, Biotech) and y^32p-ATP as substrate (cf. FIG. 2).

293 cells = assay: Cell permeability: detection of the protein in the cytosolic fraction of 293 cells by Western blot; type: cell-based; settings: 1 μM in medium, Western blot anti-hexa-His and anti-eGFP
Method: Detection of the cell permeability mediated by DHBV (duck hepatitis B virus)-CPP was made as follows: According to standard methods a fusion protein consisting of a hexa-His-Tag (6H), DHBV-CPP and eGFP (enhanced green fluorescent protein) was prepared in analogy to Example 1 in an E. coli expression system. The pQE vector system of the Quiagen company was used. This protein (DHBV42-53eGFP) was isolated. wt6HeGFP (fusion protein of 6 His and eGFP) was used for control experiments. Then, 293 cells were incubated in the presence of these proteins for 10 and 20 minutes. The proteins were added to the medium at a concentration of 1 μM. After 10 or 20 minutes, the cells were lyzed and the cytosolic fraction of the cells was isolated by ultracentrifugation.
The presence of DHBV42-53 eGFP in the cytosol fraction was detected by means of Western blot analysis using a hexa-His-tag-specific antibody (FIG. 6, lanes 1-4) (anti-hexa-His6 of Qiagen company) or an eGFP-specific antibody (anti-eGFP of Clontech company) (FIG. 6, lanes 5-8). A peroxidase-conjugated secondary antibody (anti-mouse HRP, anti-rabbit-HRP of Amersham company) was used for the detection.

Substance	inhibition of the TNFα-dependent activation of c-Raf1 kinase (c-Raf1 kinase)	internalization of the protein into the cell (cytosol) (293 cells; after 10 min)	internalization of the protein into the cell (cytosol) (293 cells; after 20 minutes)
CPP-PLAP: fusion polypeptide: amino acid sequence of FIG. 1 as N-terminus partner, PLAP motive from cytoplasmic domain of TNF-RI as C-terminus partner (PLSSIFSRIGDPTTTKPLAPNPSF)	fully inhibits	–	–
DHBV42-53-eGFP: fusion protein consisting of a hexa-His-Tag (6H), DHBV-CPP and eGFP (enhanced green fluorescent protein) (TIDHVLDHVQTM; not fully specified (C-terminus); also: fusion with hexa-His tag and eGFP, not in the chain)	–	can be observed	can be observed

Source: patent US7262267B1, “Polypeptide mediating cell permeability” (Island Pharmacueticals, Ltd., priority 1998, dated 2007)
